{"source": "patent US20090163461A1", "about": "“Ligand for Vesicular Acetylcholine Transporter” (priority 2005, published 2009)", "key": {"[1]": {"test": "Tissue distribution of radioactivity after intravenous injection in rats", "format": "in vivo", "settings": "rat", "procedure": "From the tail vein of each rat, an injection containing 20 MBq of (−)-[^11C]-o-MeVES (0.2 ml) was administered. At 5 minutes, 15 minutes, 30 minutes, and 60 minutes after administration, the rats were killed by cervical dislocation, and blood was drawn from the heart using a syringe, after which tissues such as the heart, lungs, liver, and brain were extirpated, and the radioactivity in each tissue was measured using a gamma counter. Each tissue was also weighed."}, "VAChT in the brain": {"target": "T1, VAChT in the brain (Rattus norvegicus, UniProt Q62666)", "T1 construct": "from tissue; host or cells: brain of living rats, tissue counted or sectioned after killing", "T1 sequence (Q62666 1-530)": "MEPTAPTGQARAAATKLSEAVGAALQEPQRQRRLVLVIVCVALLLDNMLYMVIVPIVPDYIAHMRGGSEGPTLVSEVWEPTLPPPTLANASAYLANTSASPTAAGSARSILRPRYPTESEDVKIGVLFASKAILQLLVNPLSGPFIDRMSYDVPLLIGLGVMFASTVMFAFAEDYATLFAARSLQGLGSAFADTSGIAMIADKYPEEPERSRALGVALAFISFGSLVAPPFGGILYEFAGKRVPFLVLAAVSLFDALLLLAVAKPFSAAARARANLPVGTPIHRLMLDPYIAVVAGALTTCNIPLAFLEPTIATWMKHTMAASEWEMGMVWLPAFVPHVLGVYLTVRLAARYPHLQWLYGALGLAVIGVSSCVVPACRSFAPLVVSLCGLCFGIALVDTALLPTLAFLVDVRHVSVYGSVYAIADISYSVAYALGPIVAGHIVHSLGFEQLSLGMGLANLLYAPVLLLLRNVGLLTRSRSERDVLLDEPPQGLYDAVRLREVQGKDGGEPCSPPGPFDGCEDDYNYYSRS", "test": "Rat brain ex vivo autoradiography", "format": "in vivo", "settings": "110-120 MBq i.v., 15 or 30 minutes after administration", "procedure": "To the caudal vein of each rat, 110-120 MBq of (−)-[^11C]-o-MeVES was administered, and the rats were killed by cervical dislocation and had the brain extirpated 15 minutes after administration for the first rat, or 30 minutes after administration for the second rat. The extirpated brain was immediately frozen with dry ice, and a brain section 20 μm in thickness was prepared using a cryomicrotome. The brain section was mounted on a glass plate, this section was dried on a hot plate (60° C.), and images of radioactivity distribution were obtained by radioluminography."}, "VAChT": {"test_system": "VAChT", "test": "PET brain imaging of learning disability model (neurolysis) monkeys and healthy monkeys", "format": "in vivo, monkey", "settings": "185-740 MBq i.v., images 15 minutes to 60 minutes after administration", "procedure": "185-740 MBq of (−)-[^11C]-o-MeVES was administered to a vein of each of learning disability model monkeys (neurolysis monkeys) created by selectively destroying the p75NTR positive cells (ACh neurons) in the right hemisphere of the brain with 192-Saporin (manufactured by Advanced Targeting Systems) and healthy monkeys, and image data were collected using PET for animals (PET; manufactured by Hamamatsu Photonics K.K., SHR-7700) at 10 seconds to 91 minutes after administration. The image data obtained at 15 minutes to 60 minutes after administration were picturized; the photographs thus obtained are shown in FIG. 4."}}}
{"smiles": "[11CH3]c1ccccc1C1CCN(C2CCCC[C@H]2O)CC1", "note": "(single isomer, unassigned; (-)) [(−)-[^11C]-o-MeVES, (−)-[^11C]-2-(4-(2-methylphenyl)piperidino)cyclohexanol]", "values": [{"measurement": "Radioactivity level blood 5 min", "setting": "[1]; i.v. 20 MBq, blood, 5 min, % of administered radioactivity per gram of tissue, mean ± S.D. n = 4-6", "result": "0.45 ± 0.04", "unit": "%"}, {"measurement": "Radioactivity level blood 15 min", "setting": "[1]; i.v. 20 MBq, blood, 15 min, % of administered radioactivity per gram of tissue, mean ± S.D. n = 4-6", "result": "0.27 ± 0.03", "unit": "%"}, {"measurement": "Radioactivity level blood 30 min", "setting": "[1]; i.v. 20 MBq, blood, 30 min, % of administered radioactivity per gram of tissue, mean ± S.D. n = 4-6", "result": "0.24 ± 0.02", "unit": "%"}, {"measurement": "Radioactivity level blood 60 min", "setting": "[1]; i.v. 20 MBq, blood, 60 min, % of administered radioactivity per gram of tissue, mean ± S.D. n = 4-6", "result": "0.18 ± 0.02", "unit": "%"}, {"measurement": "Radioactivity level brain 5 min", "setting": "[1]; i.v. 20 MBq, brain, 5 min, % of administered radioactivity per gram of tissue, mean ± S.D. n = 4-6", "result": "5.47 ± 0.44", "unit": "%"}, {"measurement": "Radioactivity level brain 15 min", "setting": "[1]; i.v. 20 MBq, brain, 15 min, % of administered radioactivity per gram of tissue, mean ± S.D. n = 4-6", "result": "4.54 ± 0.54", "unit": "%"}, {"measurement": "Radioactivity level brain 30 min", "setting": "[1]; i.v. 20 MBq, brain, 30 min, % of administered radioactivity per gram of tissue, mean ± S.D. n = 4-6", "result": "4.71 ± 0.45", "unit": "%"}, {"measurement": "Radioactivity level brain 60 min", "setting": "[1]; i.v. 20 MBq, brain, 60 min, % of administered radioactivity per gram of tissue, mean ± S.D. n = 4-6", "result": "3.86 ± 0.28", "unit": "%"}, {"measurement": "Radioactivity level heart 5 min", "setting": "[1]; i.v. 20 MBq, heart, 5 min, % of administered radioactivity per gram of tissue, mean ± S.D. n = 4-6", "result": "3.37 ± 0.30", "unit": "%"}, {"measurement": "Radioactivity level heart 15 min", "setting": "[1]; i.v. 20 MBq, heart, 15 min, % of administered radioactivity per gram of tissue, mean ± S.D. n = 4-6", "result": "1.82 ± 0.19", "unit": "%"}, {"measurement": "Radioactivity level heart 30 min", "setting": "[1]; i.v. 20 MBq, heart, 30 min, % of administered radioactivity per gram of tissue, mean ± S.D. n = 4-6", "result": "1.52 ± 0.11", "unit": "%"}, {"measurement": "Radioactivity level heart 60 min", "setting": "[1]; i.v. 20 MBq, heart, 60 min, % of administered radioactivity per gram of tissue, mean ± S.D. n = 4-6", "result": "0.96 ± 0.02", "unit": "%"}, {"measurement": "Radioactivity level kidney 5 min", "setting": "[1]; i.v. 20 MBq, kidney, 5 min, % of administered radioactivity per gram of tissue, mean ± S.D. n = 4-6", "result": "11.10 ± 4.31", "unit": "%"}, {"measurement": "Radioactivity level kidney 15 min", "setting": "[1]; i.v. 20 MBq, kidney, 15 min, % of administered radioactivity per gram of tissue, mean ± S.D. n = 4-6", "result": "7.52 ± 0.40", "unit": "%"}, {"measurement": "Radioactivity level kidney 30 min", "setting": "[1]; i.v. 20 MBq, kidney, 30 min, % of administered radioactivity per gram of tissue, mean ± S.D. n = 4-6", "result": "6.02 ± 0.09", "unit": "%"}, {"measurement": "Radioactivity level kidney 60 min", "setting": "[1]; i.v. 20 MBq, kidney, 60 min, % of administered radioactivity per gram of tissue, mean ± S.D. n = 4-6", "result": "4.15 ± 0.50", "unit": "%"}, {"measurement": "Radioactivity level liver 5 min", "setting": "[1]; i.v. 20 MBq, liver, 5 min, % of administered radioactivity per gram of tissue, mean ± S.D. n = 4-6", "result": "2.58 ± 0.23", "unit": "%"}, {"measurement": "Radioactivity level liver 15 min", "setting": "[1]; i.v. 20 MBq, liver, 15 min, % of administered radioactivity per gram of tissue, mean ± S.D. n = 4-6", "result": "2.93 ± 0.38", "unit": "%"}, {"measurement": "Radioactivity level liver 30 min", "setting": "[1]; i.v. 20 MBq, liver, 30 min, % of administered radioactivity per gram of tissue, mean ± S.D. n = 4-6", "result": "3.22 ± 0.76", "unit": "%"}, {"measurement": "Radioactivity level liver 60 min", "setting": "[1]; i.v. 20 MBq, liver, 60 min, % of administered radioactivity per gram of tissue, mean ± S.D. n = 4-6", "result": "3.28 ± 0.32", "unit": "%"}, {"measurement": "Radioactivity level lung 5 min", "setting": "[1]; i.v. 20 MBq, lung, 5 min, % of administered radioactivity per gram of tissue, mean ± S.D. n = 4-6", "result": "16.55 ± 2.56", "unit": "%"}, {"measurement": "Radioactivity level lung 15 min", "setting": "[1]; i.v. 20 MBq, lung, 15 min, % of administered radioactivity per gram of tissue, mean ± S.D. n = 4-6", "result": "10.38 ± 2.48", "unit": "%"}, {"measurement": "Radioactivity level lung 30 min", "setting": "[1]; i.v. 20 MBq, lung, 30 min, % of administered radioactivity per gram of tissue, mean ± S.D. n = 4-6", "result": "8.74 ± 0.34", "unit": "%"}, {"measurement": "Radioactivity level lung 60 min", "setting": "[1]; i.v. 20 MBq, lung, 60 min, % of administered radioactivity per gram of tissue, mean ± S.D. n = 4-6", "result": "4.81 ± 0.76", "unit": "%"}, {"measurement": "Radioactivity level muscle 5 min", "setting": "[1]; i.v. 20 MBq, muscle, 5 min, % of administered radioactivity per gram of tissue, mean ± S.D. n = 4-6", "result": "1.57 ± 0.27", "unit": "%"}, {"measurement": "Radioactivity level muscle 15 min", "setting": "[1]; i.v. 20 MBq, muscle, 15 min, % of administered radioactivity per gram of tissue, mean ± S.D. n = 4-6", "result": "1.42 ± 0.44", "unit": "%"}, {"measurement": "Radioactivity level muscle 30 min", "setting": "[1]; i.v. 20 MBq, muscle, 30 min, % of administered radioactivity per gram of tissue, mean ± S.D. n = 4-6", "result": "1.18 ± 0.24", "unit": "%"}, {"measurement": "Radioactivity level muscle 60 min", "setting": "[1]; i.v. 20 MBq, muscle, 60 min, % of administered radioactivity per gram of tissue, mean ± S.D. n = 4-6", "result": "1.00 ± 0.16", "unit": "%"}, {"measurement": "Radioactivity level pancreas 5 min", "setting": "[1]; i.v. 20 MBq, pancreas, 5 min, % of administered radioactivity per gram of tissue, mean ± S.D. n = 4-6", "result": "8.44 ± 1.93", "unit": "%"}, {"measurement": "Radioactivity level pancreas 15 min", "setting": "[1]; i.v. 20 MBq, pancreas, 15 min, % of administered radioactivity per gram of tissue, mean ± S.D. n = 4-6", "result": "12.13 ± 2.23", "unit": "%"}, {"measurement": "Radioactivity level pancreas 30 min", "setting": "[1]; i.v. 20 MBq, pancreas, 30 min, % of administered radioactivity per gram of tissue, mean ± S.D. n = 4-6", "result": "11.53 ± 2.67", "unit": "%"}, {"measurement": "Radioactivity level pancreas 60 min", "setting": "[1]; i.v. 20 MBq, pancreas, 60 min, % of administered radioactivity per gram of tissue, mean ± S.D. n = 4-6", "result": "10.67 ± 1.22", "unit": "%"}, {"measurement": "Radioactivity level small intestine 5 min", "setting": "[1]; i.v. 20 MBq, small intestine, 5 min, % of administered radioactivity per gram of tissue, mean ± S.D. n = 4-6", "result": "6.19 ± 0.58", "unit": "%"}, {"measurement": "Radioactivity level small intestine 15 min", "setting": "[1]; i.v. 20 MBq, small intestine, 15 min, % of administered radioactivity per gram of tissue, mean ± S.D. n = 4-6", "result": "8.76 ± 1.66", "unit": "%"}, {"measurement": "Radioactivity level small intestine 30 min", "setting": "[1]; i.v. 20 MBq, small intestine, 30 min, % of administered radioactivity per gram of tissue, mean ± S.D. n = 4-6", "result": "8.48 ± 1.85", "unit": "%"}, {"measurement": "Radioactivity level small intestine 60 min", "setting": "[1]; i.v. 20 MBq, small intestine, 60 min, % of administered radioactivity per gram of tissue, mean ± S.D. n = 4-6", "result": "8.90 ± 0.50", "unit": "%"}, {"measurement": "Radioactivity level spleen 5 min", "setting": "[1]; i.v. 20 MBq, spleen, 5 min, % of administered radioactivity per gram of tissue, mean ± S.D. n = 4-6", "result": "4.97 ± 1.06", "unit": "%"}, {"measurement": "Radioactivity level spleen 15 min", "setting": "[1]; i.v. 20 MBq, spleen, 15 min, % of administered radioactivity per gram of tissue, mean ± S.D. n = 4-6", "result": "5.90 ± 0.51", "unit": "%"}, {"measurement": "Radioactivity level spleen 30 min", "setting": "[1]; i.v. 20 MBq, spleen, 30 min, % of administered radioactivity per gram of tissue, mean ± S.D. n = 4-6", "result": "5.56 ± 0.52", "unit": "%"}, {"measurement": "Radioactivity level spleen 60 min", "setting": "[1]; i.v. 20 MBq, spleen, 60 min, % of administered radioactivity per gram of tissue, mean ± S.D. n = 4-6", "result": "4.24 ± 0.35", "unit": "%"}, {"measurement": "brain accumulation", "setting": "[1]; i.v., 5-60 min", "result": "retainable"}, {"measurement": "organ accumulation / exposure", "setting": "[1]; i.v., 5-60 min", "result": "no organs showing particularly high accumulation"}, {"measurement": "local distribution in the brain (autoradiography)", "setting": "VAChT in the brain", "result": "agreed well with the in vitro local distribution of (−)-[^3H]-vesamicol"}, {"measurement": "RI accumulation in healthy monkeys (PET)", "setting": "VAChT; healthy monkeys", "result": "no change in the accumulation"}, {"measurement": "RI accumulation in the cerebral cortex on the neurolysis side compared to the healthy side (PET)", "setting": "VAChT; neurolysis monkeys", "result": "significant reduction in RI accumulation"}]}
